These results are taken from US11414402B2, “Sulfonamide-substituted cyanopyrrolidines with activity as DUB inhibitors” (MISSION THERAPEUTICS LIMITED, priority 2017, dated 2022).

The target of assay [1] is UCHL1 (Homo sapiens (Human), UniProt P09936). Description: UCHL1 biochemical IC50 assay (fluorescence polarisation). The note with it: FLAG-UCHL1; 30 min preincubation at room temp; TAMRA-peptide-ubiquitin substrate 50 nM; read after 2-hour incubation; read-out: IC50 range. How it is done:
The UCHL1 construct was PCR amplified and cloned into a pFLAG-CMV-6a vector (Sigma-Aldrich) with an N-terminal FLAG tag. HEK293T cells were transfected with FLAG-UCHL1 using TransIT-LT1 transfection reagent (Mirus) according to the manufacturer's instructions. Cells were harvested 40 hours after transfection. […] The resin was washed two times with low salt buffer and one time with high salt buffer (20 mM Tris, pH 7.5, 500 mM NaCl, 0.5 mM EDTA, 5 mM beta-mercaptoethanol, protease inhibitors (complete mini, Roche) and phosphatase inhibitors (PhosSTOP mini, Roche). To elute the bound UCHL1, elution buffer (10 mM Tris, pH 7.5, 150 mM NaCl, 0.5 mM EDTA, 10% glycerol, 0.5% NP40, 5 mM beta-mercaptoethanol, 0.15 mg/ml 3× FLAG peptide (Sigma-Aldrich)) was added to the resin and incubated at 4° C. for 2.5 hours rotating. The resin was centrifuged at 4000 rpm for 30 seconds, and the supernatant containing purified FLAG-UCHL1 was removed and stored at −80° C.
UCHL1 was diluted in reaction buffer (20 mM Tris, pH 7.5, 100 mM NaCl, 0.05% Tween 20, 0.5 mg/ml BSA, 5 mM beta-mercaptoethanol) to the equivalent of 0, 0.01, 0.05, 0.1, 0.5, and 1 μl/well. Buffer was optimised for optimal temperature, pH, reducing agent, salts, time of incubation, and detergent. Reactions were initiated by the addition of 50 nM of TAMRA labelled peptide linked to ubiquitin via an iso-peptide bond as fluorescence polarisation substrate. Reactions were incubated at room temperature and read every 2 min for 120 min. Readings were performed on a Pherastar Plus (BMG Labtech). λ Excitation 540 nm; λ Emission 590 nm.
A typical 8-point dilution series to be 30, 10, 3, 1, 0.3, 0.1, 0.03, 0.01 μM final. […] Either 1 μl of 50% DMSO or diluted compound was added to the plate. UCHL1 was diluted in reaction buffer (20 mM Tris, pH 7.5, 100 mM NaCl, 0.05% Tween 20, 0.5 mg/ml BSA, 5 mM beta-mercaptoethanol) to the equivalent of 0.05 μl/well and 10 μl of diluted UCHL1 was added to the compound. Enzyme and compound were incubated for 30 min at room temp. Reactions were initiated by the addition of 50 nM of TAMRA labelled peptide linked to ubiquitin via an iso-peptide bond as fluorescence polarisation substrate. Reactions were read immediately after addition of substrate and following a 2-hour incubation at room temperature. Readings were performed on a Pherastar Plus (BMG Labtech). λ Excitation 540 nm; λ Emission 590 nm.

Assay [2] deals with USP30 (Homo sapiens (Human), UniProt Q70CQ3). The assay is described as follows: USP30 biochemical IC50 assay (fluorescence polarisation). Particulars: USP30 CD (57-517); 30 min preincubation at room temp; TAMRA-peptide-ubiquitin substrate 50 nM; read after 2-hour incubation; read-out: IC50 range. The method, then: A typical 8-point dilution series would be 100, 30, 10, 3, 1, 0.3, 0.1, 0.03 μM final. […] Either 1 μl of 50% DMSO or diluted compound was added to the plate. USP30 was diluted in reaction buffer (40 mM Tris, pH 7.5, 0.005% Tween 20, 0.5 mg/ml BSA, 5 mM beta-mercaptoethanol) to the equivalent of 0.05 μl/well and 10 μl of diluted USP30 was added to the compound. Enzyme and compound were incubated for 30 min at room temp. Reactions were initiated by the addition of 50 nM of TAMRA labelled peptide linked to ubiquitin via an iso-peptide bond as fluorescence polarisation substrate. Reactions were read immediately after addition of substrate and following a 2-hour incubation at room temperature. Readings were performed on a Pherastar Plus (BMG Labtech). λ Excitation 540 nm; λ Emission 590 nm.
USP30, sequence (Q70CQ3 57-517): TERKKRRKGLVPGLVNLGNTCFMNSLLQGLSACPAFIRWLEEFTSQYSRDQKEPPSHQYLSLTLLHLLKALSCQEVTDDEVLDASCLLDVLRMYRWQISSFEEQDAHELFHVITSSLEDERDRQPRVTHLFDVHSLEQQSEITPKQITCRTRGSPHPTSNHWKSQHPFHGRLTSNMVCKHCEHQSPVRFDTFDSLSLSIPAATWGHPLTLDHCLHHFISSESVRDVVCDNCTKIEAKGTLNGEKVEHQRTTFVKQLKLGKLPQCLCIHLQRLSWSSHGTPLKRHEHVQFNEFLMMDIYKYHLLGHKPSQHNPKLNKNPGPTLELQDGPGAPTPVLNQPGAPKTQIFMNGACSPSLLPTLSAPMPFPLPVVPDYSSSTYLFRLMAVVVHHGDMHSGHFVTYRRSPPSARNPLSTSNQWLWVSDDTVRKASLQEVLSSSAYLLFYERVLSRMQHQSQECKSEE

UCHL1, sequence (P09936 whole entry): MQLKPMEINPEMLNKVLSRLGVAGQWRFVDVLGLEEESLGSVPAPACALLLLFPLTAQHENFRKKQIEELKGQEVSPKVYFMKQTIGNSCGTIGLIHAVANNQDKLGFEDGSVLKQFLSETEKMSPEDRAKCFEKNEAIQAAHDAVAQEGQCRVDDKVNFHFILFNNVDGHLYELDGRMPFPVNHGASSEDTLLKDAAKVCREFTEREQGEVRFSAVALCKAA

A word on the IC50: it is the concentration that gives 50% inhibition. In the case of `N#CN1CCC(NS(=O)(=O)c2ccc(Oc3ccc(C(F)(F)F)cn3)cc2)C1` (centres unmarked) [Example 19, N-(1-cyanopyrrolidin-3-yl)-4-((5-(trifluoromethyl)pyridin-2-yl)oxy)benzenesulfonamide], the IC50 in assay [1] is 0.1 to 1 µM; in assay [2], 100 to 1000 nM.

In the case of `N#CN1CCC(NS(=O)(=O)c2ccc(-c3cncnc3)cc2)C1` (centres unmarked) [Example 9, N-(1-cyanopyrrolidin-3-yl)-4-(pyrimidin-5-yl)benzenesulfonamide], the IC50 in assay [1] fell in the range of 1 to 10 µM; in assay [2] it was 100 to 1000 nM.

For `N#CN1CC[C@H](NS(=O)(=O)c2ccccc2)C1` [Example 6, (S)-N-(1-cyanopyrrolidin-3-yl)benzenesulfonamide], the IC50 in assay [1] fell in the range of 10 to 100 µM; in assay [2], 1000 to 10000 nM.

For `N#CN1CCC(NS(=O)(=O)c2ccc(-c3ccccc3)cc2)C1` (centres unmarked) [Example 2, N-(1-cyanopyrrolidin-3-yl)-[1,1′-biphenyl]-4-sulfonamide], the IC50 was in the range of 1 to 10 µM in assay [1] and 100 to 1000 nM in assay [2].
